We go through 21 compounds from ChEMBL document CHEMBL5137073, “Optimization and Mechanistic Investigations of Novel Allosteric Activators of PKG1α” (J Med Chem, 2022).

The EC50 is the concentration that produces a half-maximal response. As a reminder, the solubility is the dissolved amount per volume that the medium holds. Broadly, the Papp is a coefficient for how fast a substance crosses the barrier. As a reminder, the MRT is a mean duration of stay, worked out from the concentration-time curve. The term bioavailability denotes the share of a dose that reaches the circulation, judged against a reference dose that is usually intravenous. Lower therefore signals little systemic uptake.

≈ marks a conversion by molar mass, not a printed value.

Data set [1] addresses T1, cGMP-dependent protein kinase 1 (Homo sapiens, UniProt Q13976).
T1 sequence (Q13976 whole entry): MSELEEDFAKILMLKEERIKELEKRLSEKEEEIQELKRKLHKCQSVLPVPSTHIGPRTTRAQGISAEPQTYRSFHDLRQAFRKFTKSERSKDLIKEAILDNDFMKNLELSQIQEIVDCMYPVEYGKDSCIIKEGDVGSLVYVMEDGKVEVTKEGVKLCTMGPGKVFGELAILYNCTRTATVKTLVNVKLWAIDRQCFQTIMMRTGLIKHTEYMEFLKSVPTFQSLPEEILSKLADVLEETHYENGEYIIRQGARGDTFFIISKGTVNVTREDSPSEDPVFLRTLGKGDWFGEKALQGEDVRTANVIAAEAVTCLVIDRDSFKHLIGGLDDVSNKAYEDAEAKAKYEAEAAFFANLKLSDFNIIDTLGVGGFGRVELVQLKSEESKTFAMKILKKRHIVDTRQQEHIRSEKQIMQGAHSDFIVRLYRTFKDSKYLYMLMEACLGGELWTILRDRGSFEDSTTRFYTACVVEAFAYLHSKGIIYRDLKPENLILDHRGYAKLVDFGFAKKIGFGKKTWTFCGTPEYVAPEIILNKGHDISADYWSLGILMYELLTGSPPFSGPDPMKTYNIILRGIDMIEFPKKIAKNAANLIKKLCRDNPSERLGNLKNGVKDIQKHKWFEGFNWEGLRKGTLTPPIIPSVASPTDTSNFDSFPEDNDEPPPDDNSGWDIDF
Nature of the data set: Activation of basal state recombinant PKG1alpha (unknown origin) using Glass-tide peptide substrate incubated for 30 mins followed by ATP addition and measured after 2 hr by ADP-GLO Max Assay. (In general: ADP-Glo turns the ADP formed in a reaction into a luminescent signal.)

Data set [2] deals with T1, cGMP-dependent protein kinase 1. Nature of the data set: Activation of cGMP induced partially activated state recombinant PKG1alpha (unknown origin) using Glass-tide peptide substrate incubated for 30 mins followed by ATP addition and measured after 2 hr in presence of cGMP by ADP-GLO Max Assay.
A short description of data set [3]: Solubility of compound at pH 2. It counts as physicochemical. The settings on record: buffer.
The nature of data set [4]: Protein binding in Wistar Han male rat plasma at 1 mg/kg, iv or 5 mg/kg, po and measured upto 8 hrs post dose by LC-MS/MS analysis. Format: ADME, organism-based. The settings on record: read-out: PPB.
The nature of data set [5]: Apparent permeability in dog MDCK-II cells. It counts as ADME, cell-based, Canis lupus familiaris.
A short description of data set [6]: Solubility of compound in FaSSIF. Format: physicochemical.
The nature of data set [7]: Volume of distribution in Wistar Han male rat plasma at 1 mg/kg, iv or 5 mg/kg, po and measured upto 8 hrs post dose by LC-MS/MS analysis. Format: ADME, organism-based.
A short description of data set [8]: MRT in Wistar Han male rat plasma at 1 mg/kg, iv and measured upto 8 hrs post dose by LC-MS/MS analysis. It counts as ADME, organism-based.
Data set [9] is described as follows: Clearance in Wistar Han male rat plasma at 1 mg/kg, iv or 5 mg/kg, po and measured upto 8 hrs post dose by LC-MS/MS analysis. It counts as ADME, organism-based.
Data set [10] can be described thus: Solubility of compound at pH 7. Format: physicochemical. The settings on record: buffer.
A short description of data set [11]: Oral bioavailability in Wistar Han male rat plasma at 5 mg/kg and measured upto 8 hrs by LC-MS/MS analysis. It counts as ADME, organism-based.
The target in data set [12] is T1, cGMP-dependent protein kinase 1.
Description: Activation of PKG1alpha in human HEK293 cells stably expressing VASP assessed as VSAP phosphorylation at Ser 239 incubated for 45 mins by HTRF assay
Data set [13] is described as follows: MRT in Wistar Han male rat plasma at 0.05 mg/kg, iv and measured upto 8 hrs post dose by LC-MS/MS analysis. It counts as ADME, organism-based.
A short description of data set [14]: Protein binding in Wistar Han male rat plasma at 0.05 mg/kg, iv and measured upto 8 hrs post dose by LC-MS/MS analysis. It counts as ADME, organism-based. Conditions: read-out: PPB (converted).
Data set [15] in a line: Clearance in Wistar Han male rat plasma at 0.05 mg/kg, iv and measured upto 8 hrs post dose by LC-MS/MS analysis. Format: ADME, organism-based.
Data set [16] in a line: Volume of distribution in Wistar Han male rat plasma at 0.05 mg/kg, iv and measured upto 8 hrs post dose by LC-MS/MS analysis. Format: ADME, organism-based.

As for `Cc1cc(C(=O)O)ccc1CN1CCC[C@H](O[C@H](CO)c2ccccc2)[C@@H]1c1ccccc1`, the results for the EC50 in data set [1] and in data set [2] were more than 200 µM and 25 µM, respectively.

As to `CC(=O)NS(=O)(=O)c1ccc(CN2CCC[C@H](O[C@H](CO)c3cc(Cl)cc(Cl)c3)[C@@H]2c2ccccc2)cc1`, the EC50 in data set [1] is more than 200 µM; in data set [2], 14 µM.

Consider `Cc1cc(C(=O)O)ccc1C(C)N1CCC[C@H](O[C@H](CO)c2cc(Cl)cc(Cl)c2)[C@@H]1c1ccccc1` (stereo not given in full), for which the EC50 in data set [2] was found to be 18 µM.

Regarding `Cc1cc(C(=O)O)ccc1CN1CCC[C@H](O[C@H](CO)c2cc(Cl)cc(Cl)c2)[C@@H]1c1ccccc1`, the solubility stood at 196 µM (≈ 101 µg/mL) in data set [3], 36 µM (≈ 18.5 µg/mL) in data set [6] and 157 µM (≈ 80.8 µg/mL) in data set [10]. In addition, the fraction unbound at 8 h in [4] is 0.001. Besides, in data set [5], the Papp worked out at 22 ×10⁻⁶ cm/s. Further, in [7], the Vd came to 0.33 L/kg. This compound gave an MRT in data set [8] of 2.3 h. In addition, the clearance in [9] turned out to be 2.5 mL/min/kg. In data set [11], the bioavailability turned out to be 62%.

For the compound `Cc1cc(C(=O)O)ccc1CN1CCC[C@H](O[C@H](CO)c2cc(Cl)cc(Cl)c2)[C@@H]1c1ccc(F)cc1`, in data set [2], the EC50 worked out at 18 µM.

Take `Cc1cc(C(=O)O)ccc1CN1CCC[C@H](O[C@H](CO)c2cc(Cl)cc(Cl)c2)[C@@H]1c1cccc(F)c1`: the EC50 in data set [2] was 12 µM.

As to `O=C(O)c1ccc(CN2CCC[C@H](O[C@H](CO)c3cc(Cl)cc(Cl)c3)[C@@H]2c2ccccc2)cc1`, the EC50 in data set [1] worked out at 77 µM. This compound also had a solubility in data set [10] of 85 µM (≈ 42.5 µg/mL).

With `Cc1cc(C(=O)O)ccc1CN1C(=O)CC[C@H](OCc2cc(Cl)cc(Cl)c2)[C@@H]1c1ccccc1`, the EC50 in data set [1] was more than 200 µM; in [2], 169 µM.

`Cc1cc(C(=O)O)ccc1CN1CCC[C@@]2(C[C@@H](c3ccccc3)CO2)[C@@H]1c1ccccc1`: the EC50 in data set [1] is more than 200 µM; in [2] it was 43 µM.

`Cc1cc(C(=O)O)ccc1CN1CCC[C@H](O[C@H](CO)c2cc(Cl)cc(Cl)c2)[C@@H]1C1CCCCC1`: the EC50 is more than 200 µM in data set [1] and 65 µM in data set [2].

With `OC[C@@H](O[C@H]1CCCN(Cc2ncc[nH]2)[C@H]1c1ccccc1)c1cc(Cl)cc(Cl)c1`, the EC50 in [1] is more than 200 µM; in data set [12], more than 164 µM; in data set [2], 47 µM. Further, the Papp in [5] amounted to 2 ×10⁻⁶ cm/s. In [10], this compound registered a solubility of 120 µM (≈ 53.6 µg/mL).

As for `O=C(O)c1ccc(CN2CCC[C@H](O[C@H](CO)c3cc(Cl)cc(Cl)c3)[C@@H]2c2ccccc2)c([N+](=O)[O-])c1`, the values for the solubility in data set [3], in [6] and in data set [10] were 172 µM (≈ 93.8 µg/mL), 112 µM (≈ 61.1 µg/mL) and 110 µM (≈ 60 µg/mL), respectively. The compound further gave an MRT in data set [13] of 0.9 h. In [5], the Papp stood at 10 ×10⁻⁶ cm/s. In addition, the fraction unbound at 8 h in data set [14] is less than 0.001. In data set [15], the clearance was 8.1 mL/min/kg. The compound further gave a Vd in data set [16] of 0.45 L/kg.

With `Cc1cc(C(=O)O)ccc1CN1CCC[C@H](O[C@H](CO)c2cc(Cl)cc(Cl)c2)[C@@H]1c1cccnc1` (racemic), in [2], the EC50 stood at 47 µM.

On to `Cc1cc(C(=O)O)ccc1CN1CCC[C@H](O[C@H](CO)c2ccnc(Cl)c2)[C@@H]1c1ccccc1`, for which the EC50 in data set [1] was more than 200 µM; in [2] it was 50 µM.

On to `Nc1cc(C(=O)O)ccc1CN1CCC[C@H](O[C@H](CO)c2cc(Cl)cc(Cl)c2)[C@@H]1c1ccccc1`, for which the solubility in [3] was found to be 126 µM (≈ 64.9 µg/mL); in data set [6], 137 µM (≈ 70.6 µg/mL); in data set [10], 78 µM (≈ 40.2 µg/mL). The MRT in [13] was found to be 1.9 h. In addition, the apparent permeability (Papp) in data set [5] came out at 21 ×10⁻⁶ cm/s. In addition, the fraction unbound at 8 h in data set [14] is 0.002. In addition, the clearance in [15] came out at 4.4 mL/min/kg. In data set [16], this compound yielded a Vd of 0.5 L/kg.

With `Cc1cc(C(=O)O)ccc1C(=O)N1CCC[C@H](O[C@H](CO)c2cc(Cl)cc(Cl)c2)[C@@H]1c1ccccc1`, the EC50 in data set [1] and in data set [2] was more than 200 µM throughout.

For the compound `COc1cccc([C@@H](CO)O[C@H]2CCCN(Cc3ccc(C(=O)O)cc3C)[C@H]2c2ccccc2)c1`, the EC50 is more than 200 µM in [1] and 81 µM in data set [2].

Turning to `Cc1cc(C(=O)O)ccc1CN1C(C)CC[C@H](O[C@H](CO)c2cc(Cl)cc(Cl)c2)[C@@H]1c1ccccc1` (stereo not given in full), the results for the EC50 in data set [1] and in data set [2] were 130 µM and 36 µM, respectively.

For `Cc1cc(C(=O)O)ccc1CN1CC[C@H](OC(CO)c2cc(Cl)cc(Cl)c2)[C@@H]1c1ccccc1` (stereo not given in full), the results for the EC50 in data set [1] and in data set [2] were 185 µM and 133 µM, respectively.

For the compound `Cc1cc(C(=O)O)ccc1CN1CCC[C@H](OC(c2cc(Cl)cc(Cl)c2)C(C)(C)O)[C@@H]1c1ccccc1` (stereo not given in full), the EC50 in data set [1] was determined as 121 µM; in data set [2], 17 µM.

`O=C(O)C12CC(CN3CCC[C@H](O[C@H](CO)c4cc(Cl)cc(Cl)c4)[C@@H]3c3ccccc3)(C1)C2`: the results for the EC50 in [1] and in [2] were more than 200 µM and 12 µM, respectively.
